Results as given in patent US20190307843A1, “SINGLE DOSE METHODS FOR PREVENTING AND TREATING FUNGAL INFECTIONS” (Cidara Therapeutics, Inc., priority 2016, published 2019).
Values after ≈ are worked out from the molar mass of the structure shown. Like-named read-outs stand apart in the source and are kept apart here.

System: Candida auris strains
Test: Candida auris antifungal susceptibility testing (CLSI M27-A3), 38 strains
Assay type: cell-based
Details: for MIC: Candidozyma auris, read-out: MIC

For `CC[C@H](C)C[C@H](C)CCCCCCCCC(=O)N[C@H]1C[C@@H](O)[C@@H](NCCN)NC(=O)[C@@H]2[C@@H](O)CCN2C(=O)[C@H]([C@H](O)CCN)NC(=O)[C@H]([C@H](O)[C@@H](O)c2ccc(O)cc2)NC(=O)[C@@H]2C[C@@H](O)CN2C(=O)[C@H]([C@@H](C)O)NC1=O` [CAS, caspofungin], the MIC (24 h, strain 1 VPCI 669/P/12, 24 h) was 0.25 µg/mL (≈ 0.229 µM), the MIC (24 h, strain 2 VCPI 671/P/12, 24 h) was 0.25 µg/mL (≈ 0.229 µM) and the MIC (24 h, strain 3 VCPI 674/P/12, 24 h) was 0.25 µg/mL (≈ 0.229 µM). For the same compound, the MIC (24 h, strain 4 VCPI 683/P/12, 24 h) was 0.25 µg/mL (≈ 0.229 µM), the MIC (24 h, strain 5 VCPI 692/P/12, 24 h) was 0.25 µg/mL (≈ 0.229 µM) and the MIC (24 h, strain 6 VCPI 712/P/12, 24 h) was 0.25 µg/mL (≈ 0.229 µM). It also gave an MIC (24 h, strain 7 VCPI 471/P/13, 24 h) of 1 µg/mL (≈ 0.915 µM), an MIC (24 h, strain 8 VCPI 475/P/13, 24 h) of 0.25 µg/mL (≈ 0.229 µM) and an MIC (24 h, strain 9 VCPI 478/P/13, 24 h) of 0.25 µg/mL (≈ 0.229 µM). The MIC (24 h, strain 10 VCPI 479/P/13, 24 h) was 0.5 µg/mL (≈ 0.457 µM), the MIC (24 h, strain 11 VCPI 480/P/13, 24 h) was 0.5 µg/mL (≈ 0.457 µM) and the MIC (24 h, strain 12 VCPI 482/P/13, 24 h) was 0.5 µg/mL (≈ 0.457 µM). The MIC (24 h, strain 13 VCPI 483/P/13, 24 h) was 0.25 µg/mL (≈ 0.229 µM), the MIC (24 h, strain 14 VCPI 1130/P/13, 24 h) was 0.5 µg/mL (≈ 0.457 µM) and the MIC (24 h, strain 15 VCPI 1132/P/13, 24 h) was 0.5 µg/mL (≈ 0.457 µM). For the same compound, the MIC (24 h, strain 16 VCPI 1133/P/13, 24 h) was 16 µg/mL (≈ 14.6 µM), the MIC (24 h, strain 17 VCPI 105/P/14, 24 h) was 0.5 µg/mL (≈ 0.457 µM) and the MIC (24 h, strain 18 VCPI 107/P/14, 24 h) was 0.25 µg/mL (≈ 0.229 µM). For the same compound, the MIC (24 h, strain 19 VCPI 510/P/14, 24 h) was 0.5 µg/mL (≈ 0.457 µM), the MIC (24 h, strain 20 VCPI 511/P/14, 24 h) was 0.5 µg/mL (≈ 0.457 µM) and the MIC (24 h, strain 21 VCPI 512/P/14, 24 h) was 0.5 µg/mL (≈ 0.457 µM). The MIC (24 h, strain 22 VCPI 513/P/14, 24 h) was 1 µg/mL (≈ 0.915 µM), the MIC (24 h, strain 23 VCPI 514/P/14, 24 h) was 0.5 µg/mL (≈ 0.457 µM) and the MIC (24 h, strain 24 VCPI 250/P/14, 24 h) was 0.5 µg/mL (≈ 0.457 µM). The MIC (24 h, strain 25 VCPI 265/P/14, 24 h) was 8 µg/mL (≈ 7.32 µM), the MIC (24 h, strain 26 VCPI 266/P/14, 24 h) was 0.125 µg/mL (≈ 0.114 µM) and the MIC (24 h, strain 27 VCPI 462/P/14, 24 h) was 8 µg/mL (≈ 7.32 µM). The MIC (24 h, strain 28 VCPI 463/P/14, 24 h) was 0.5 µg/mL (≈ 0.457 µM), the MIC (24 h, strain 29 VCPI 467/P/14, 24 h) was 0.125 µg/mL (≈ 0.114 µM) and the MIC (24 h, strain 30 VCPI 471a/P/14, 24 h) was 4 µg/mL (≈ 3.66 µM). The MIC (24 h, strain 31 VCPI 478/P/14, 24 h) was 1 µg/mL (≈ 0.915 µM), the MIC (24 h, strain 32 VCPI 518/P/14, 24 h) was 0.5 µg/mL (≈ 0.457 µM) and the MIC (24 h, strain 33 VCPI 550/P/14, 24 h) was 0.125 µg/mL (≈ 0.114 µM). It also gave an MIC (24 h, strain 34 VCPI 714/P/14, 24 h) of 0.5 µg/mL (≈ 0.457 µM), an MIC (24 h, strain 35 VCPI 717/P/14, 24 h) of 0.5 µg/mL (≈ 0.457 µM) and an MIC (24 h, strain 36 VCPI 1060/P/14, 24 h) of 0.5 µg/mL (≈ 0.457 µM). The MIC (24 h, strain 37 VCPI 74/P/15, 24 h) was 0.5 µg/mL (≈ 0.457 µM), the MIC (24 h, strain 38 VCPI 213/P/15, 24 h) was 0.5 µg/mL (≈ 0.457 µM) and the MIC (48 h, strain 1 VPCI 669/P/12, 48 h) was greater than 16 µg/mL. It also gave an MIC (48 h, strain 2 VCPI 671/P/12, 48 h) greater than 16 µg/mL, an MIC (48 h, strain 3 VCPI 674/P/12, 48 h) of 0.25 µg/mL (≈ 0.229 µM) and an MIC (48 h, strain 4 VCPI 683/P/12, 48 h) greater than 16 µg/mL. It also gave an MIC (48 h, strain 5 VCPI 692/P/12, 48 h) greater than 16 µg/mL, an MIC (48 h, strain 6 VCPI 712/P/12, 48 h) of 0.25 µg/mL (≈ 0.229 µM) and an MIC (48 h, strain 7 VCPI 471/P/13, 48 h) greater than 16 µg/mL. For the same compound, the MIC (48 h, strain 8 VCPI 475/P/13, 48 h) was 0.25 µg/mL (≈ 0.229 µM), the MIC (48 h, strain 9 VCPI 478/P/13, 48 h) was greater than 16 µg/mL and the MIC (48 h, strain 10 VCPI 479/P/13, 48 h) was greater than 16 µg/mL. It also gave an MIC (48 h, strain 11 VCPI 480/P/13, 48 h) greater than 16 µg/mL, an MIC (48 h, strain 12 VCPI 482/P/13, 48 h) greater than 16 µg/mL and an MIC (48 h, strain 13 VCPI 483/P/13, 48 h) of 0.25 µg/mL (≈ 0.229 µM). For the same compound, the MIC (48 h, strain 14 VCPI 1130/P/13, 48 h) was 0.5 µg/mL (≈ 0.457 µM), the MIC (48 h, strain 15 VCPI 1132/P/13, 48 h) was 0.5 µg/mL (≈ 0.457 µM) and the MIC (48 h, strain 16 VCPI 1133/P/13, 48 h) was greater than 16 µg/mL. It also gave an MIC (48 h, strain 17 VCPI 105/P/14, 48 h) of 1 µg/mL (≈ 0.915 µM), an MIC (48 h, strain 18 VCPI 107/P/14, 48 h) of 0.5 µg/mL (≈ 0.457 µM) and an MIC (48 h, strain 19 VCPI 510/P/14, 48 h) greater than 16 µg/mL. It also gave an MIC (48 h, strain 20 VCPI 511/P/14, 48 h) greater than 16 µg/mL, an MIC (48 h, strain 21 VCPI 512/P/14, 48 h) of 1 µg/mL (≈ 0.915 µM) and an MIC (48 h, strain 22 VCPI 513/P/14, 48 h) greater than 16 µg/mL. For the same compound, the MIC (48 h, strain 23 VCPI 514/P/14, 48 h) was 1 µg/mL (≈ 0.915 µM), the MIC (48 h, strain 24 VCPI 250/P/14, 48 h) was 0.5 µg/mL (≈ 0.457 µM) and the MIC (48 h, strain 25 VCPI 265/P/14, 48 h) was greater than 16 µg/mL. It also gave an MIC (48 h, strain 26 VCPI 266/P/14, 48 h) of 0.125 µg/mL (≈ 0.114 µM), an MIC (48 h, strain 27 VCPI 462/P/14, 48 h) greater than 16 µg/mL and an MIC (48 h, strain 28 VCPI 463/P/14, 48 h) of 0.5 µg/mL (≈ 0.457 µM). The MIC (48 h, strain 29 VCPI 467/P/14, 48 h) was 0.5 µg/mL (≈ 0.457 µM), the MIC (48 h, strain 30 VCPI 471a/P/14, 48 h) was greater than 16 µg/mL and the MIC (48 h, strain 31 VCPI 478/P/14, 48 h) was 2 µg/mL (≈ 1.83 µM). It also gave an MIC (48 h, strain 32 VCPI 518/P/14, 48 h) of 16 µg/mL (≈ 14.6 µM), an MIC (48 h, strain 33 VCPI 550/P/14, 48 h) of 0.25 µg/mL (≈ 0.229 µM) and an MIC (48 h, strain 34 VCPI 714/P/14, 48 h) greater than 16 µg/mL. It also gave an MIC (48 h, strain 35 VCPI 717/P/14, 48 h) greater than 16 µg/mL, an MIC (48 h, strain 36 VCPI 1060/P/14, 48 h) greater than 16 µg/mL and an MIC (48 h, strain 37 VCPI 74/P/15, 48 h) greater than 16 µg/mL. For the same compound, the MIC (48 h, strain 38 VCPI 213/P/15, 48 h) was greater than 16 µg/mL and the “number of resistant isolates” value (of 38 C. auris isolates) was 4.
